{"source": "PubChem BioAssay AID180", "about": "(DTP/NCI, 2004)", "tested_on": "BDF1 mice, Adenocarcinoma 755 s.c., tumor weight T/C", "experiment": "NCI In Vivo Anticancer Drug Screen. Data for tumor model Adenocarcinoma 755 (subcutaneous) in B6D2F1 (BDF1) mice", "settings": "endpoint: mean tumor weight, vehicle: steriod suspending solution, higher = larger tumour", "method_in_brief": "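In vivo antitumor screen on a transplantable tumor line. Result equals the measure in compound-treated animals divided by the same measure in vehicle controls.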", "note": "“And” between values parts separate entries of the source, which are not always exact repeats. Equal entries are not always repeated."}
{"smiles": "CC(=O)[C@@]1(O)CC[C@H]2[C@@H]3C[C@H](C)C4=CC(=O)C=C[C@]4(C)[C@@]3(F)[C@@H](O)C[C@@]21C", "values": [{"measurement": "T/C", "setting": "dose: 0.37 mg/kg/injection, schedule: Q#A X022 (sc)", "result": "55 % of control"}, {"measurement": "T/C", "setting": "dose: 0.5 mg/kg/injection, schedule: Q01DX011 (sc)", "result": "40 % of control"}, {"measurement": "T/C", "setting": "dose: 0.75 mg/kg/injection, schedule: Q#A X022 (sc)", "result": "67 % of control"}, {"measurement": "T/C", "setting": "dose: 1.0 mg/kg/injection, schedule: Q03DX004 (sc)", "result": "62 % of control"}, {"measurement": "T/C", "setting": "dose: 1.5 mg/kg/injection, schedule: Q#A X022 (sc)", "result": "44 % of control"}, {"measurement": "T/C", "setting": "dose: 1.6 mg/kg/injection, schedule: Q01DX011 (sc)", "result": "57 % of control"}, {"measurement": "T/C", "setting": "dose: 2.0 mg/kg/injection, schedule: Q03DX004 (sc)", "result": "44 % of control"}, {"measurement": "T/C", "setting": "dose: 3.0 mg/kg/injection, schedule: Q01DX011 (im)", "result": "43 % of control"}, {"measurement": "T/C", "setting": "dose: 3.0 mg/kg/injection, schedule: Q01DX011 (sc)", "result": "47 % of control and 51 % of control"}, {"measurement": "T/C", "setting": "dose: 3.0 mg/kg/injection, schedule: Q#A X022 (sc)", "result": "39 % of control"}, {"measurement": "T/C", "setting": "dose: 3.2 mg/kg/injection, schedule: Q01DX011 (sc)", "result": "31 % of control"}, {"measurement": "T/C", "setting": "dose: 4.0 mg/kg/injection, schedule: Q03DX004 (sc)", "result": "72 % of control"}, {"measurement": "T/C", "setting": "dose: 6.0 mg/kg/injection, schedule: Q01DX011 (im)", "result": "38 % of control"}, {"measurement": "T/C", "setting": "dose: 6.0 mg/kg/injection, schedule: Q01DX011 (sc)", "result": "16 % of control and 25 % of control"}, {"measurement": "T/C", "setting": "dose: 6.3 mg/kg/injection, schedule: Q01DX011 (sc)", "result": "49 % of control"}, {"measurement": "T/C", "setting": "dose: 8.0 mg/kg/injection, schedule: Q03DX004 (sc)", "result": "52 % of control"}, {"measurement": "T/C", "setting": "dose: 9.0 mg/kg/injection, schedule: Q03DX004 (sc)", "result": "35 % of control"}, {"measurement": "T/C", "setting": "dose: 12.0 mg/kg/injection, schedule: Q01DX011 (sc)", "result": "16 % of control"}, {"measurement": "T/C", "setting": "dose: 12.5 mg/kg/injection, schedule: Q01DX006 (iv)", "result": "45 % of control"}, {"measurement": "T/C", "setting": "dose: 12.5 mg/kg/injection, schedule: Q01DX011 (im)", "result": "21 % of control"}, {"measurement": "T/C", "setting": "dose: 12.5 mg/kg/injection, schedule: Q01DX011 (ip)", "result": "48 % of control"}, {"measurement": "T/C", "setting": "dose: 12.5 mg/kg/injection, schedule: Q01DX011 (sc)", "result": "19 % of control and 39 % of control"}, {"measurement": "T/C", "setting": "dose: 18.0 mg/kg/injection, schedule: Q03DX004 (sc)", "result": "35 % of control"}, {"measurement": "T/C", "setting": "dose: 22.0 mg/kg/injection, schedule: Q## X002 (sc)", "result": "55 % of control"}, {"measurement": "T/C", "setting": "dose: 24.0 mg/kg/injection, schedule: Q01DX011 (sc)", "result": "20 % of control"}, {"measurement": "T/C", "setting": "dose: 25.0 mg/kg/injection, schedule: Q01DX006 (iv)", "result": "30 % of control"}, {"measurement": "T/C", "setting": "dose: 25.0 mg/kg/injection, schedule: Q01DX011 (im)", "result": "12 % of control"}, {"measurement": "T/C", "setting": "dose: 25.0 mg/kg/injection, schedule: Q01DX011 (ip)", "result": "42 % of control"}, {"measurement": "T/C", "setting": "dose: 25.0 mg/kg/injection, schedule: Q01DX011 (sc)", "result": "12 % of control"}, {"measurement": "T/C", "setting": "dose: 27.5 mg/kg/injection, schedule: Q01DX011 (sc)", "result": "36 % of control and 54 % of control"}, {"measurement": "T/C", "setting": "dose: 37.0 mg/kg/injection, schedule: Q03DX004 (sc)", "result": "36 % of control"}, {"measurement": "T/C", "setting": "dose: 43.0 mg/kg/injection, schedule: Q## X002 (sc)", "result": "30 % of control"}, {"measurement": "T/C", "setting": "dose: 50.0 mg/kg/injection, schedule: Q01DX006 (iv)", "result": "25 % of control"}, {"measurement": "T/C", "setting": "dose: 50.0 mg/kg/injection, schedule: Q01DX011 (im)", "result": "14 % of control"}, {"measurement": "T/C", "setting": "dose: 50.0 mg/kg/injection, schedule: Q01DX011 (ip)", "result": "34 % of control"}, {"measurement": "T/C", "setting": "dose: 50.0 mg/kg/injection, schedule: Q01DX011 (oral)", "result": "47 % of control"}, {"measurement": "T/C", "setting": "dose: 50.0 mg/kg/injection, schedule: Q01DX011 (sc)", "result": "11 % of control"}, {"measurement": "T/C", "setting": "dose: 55.0 mg/kg/injection, schedule: Q01DX011 (sc)", "result": "28 % of control"}, {"measurement": "T/C", "setting": "dose: 75.0 mg/kg/injection, schedule: Q03DX004 (sc)", "result": "18 % of control"}, {"measurement": "T/C", "setting": "dose: 87.0 mg/kg/injection, schedule: Q01DX001 (sc)", "result": "53 % of control and 66 % of control"}, {"measurement": "T/C", "setting": "dose: 87.0 mg/kg/injection, schedule: Q07DX002 (sc)", "result": "37 % of control"}, {"measurement": "T/C", "setting": "dose: 100.0 mg/kg/injection, schedule: Q01DX006 (iv)", "result": "19 % of control"}, {"measurement": "T/C", "setting": "dose: 100.0 mg/kg/injection, schedule: Q01DX011 (im)", "result": "7 % of control"}, {"measurement": "T/C", "setting": "dose: 100.0 mg/kg/injection, schedule: Q01DX011 (oral)", "result": "59 % of control"}, {"measurement": "T/C", "setting": "dose: 100.0 mg/kg/injection, schedule: Q01DX011 (sc)", "result": "13 % of control"}, {"measurement": "T/C", "setting": "dose: 150.0 mg/kg/injection, schedule: Q03DX004 (sc)", "result": "25 % of control"}, {"measurement": "T/C", "setting": "dose: 175.0 mg/kg/injection, schedule: Q01DX001 (sc)", "result": "38 % of control and 43 % of control"}, {"measurement": "T/C", "setting": "dose: 175.0 mg/kg/injection, schedule: Q07DX002 (sc)", "result": "27 % of control"}, {"measurement": "T/C", "setting": "dose: 200.0 mg/kg/injection, schedule: Q01DX006 (iv)", "result": "14 % of control"}, {"measurement": "T/C", "setting": "dose: 200.0 mg/kg/injection, schedule: Q01DX011 (im)", "result": "8 % of control"}, {"measurement": "T/C", "setting": "dose: 200.0 mg/kg/injection, schedule: Q01DX011 (oral)", "result": "42 % of control"}, {"measurement": "T/C", "setting": "dose: 200.0 mg/kg/injection, schedule: Q01DX011 (sc)", "result": "3 % of control"}, {"measurement": "T/C", "setting": "dose: 300.0 mg/kg/injection, schedule: Q01DX011 (sc)", "result": "7 % of control"}, {"measurement": "T/C", "setting": "dose: 300.0 mg/kg/injection, schedule: Q03DX004 (sc)", "result": "15 % of control"}, {"measurement": "T/C", "setting": "dose: 350.0 mg/kg/injection, schedule: Q01DX001 (sc)", "result": "28 % of control and 47 % of control"}, {"measurement": "T/C", "setting": "dose: 350.0 mg/kg/injection, schedule: Q07DX002 (sc)", "result": "19 % of control"}, {"measurement": "T/C", "setting": "dose: 400.0 mg/kg/injection, schedule: Q01DX011 (oral)", "result": "34 % of control"}, {"measurement": "T/C", "setting": "dose: 400.0 mg/kg/injection, schedule: Q03DX004 (sc)", "result": "19 % of control"}, {"measurement": "T/C", "setting": "dose: 500.0 mg/kg/injection, schedule: Q01DX011 (oral)", "result": "37 % of control"}, {"measurement": "T/C", "setting": "dose: 600.0 mg/kg/injection, schedule: Q01DX011 (oral)", "result": "38 % of control"}, {"measurement": "T/C", "setting": "dose: 600.0 mg/kg/injection, schedule: Q03DX004 (sc)", "result": "15 % of control"}, {"measurement": "T/C", "setting": "dose: 700.0 mg/kg/injection, schedule: Q01DX001 (sc)", "result": "26 % of control and 43 % of control"}, {"measurement": "T/C", "setting": "dose: 700.0 mg/kg/injection, schedule: Q07DX002 (sc)", "result": "19 % of control"}, {"measurement": "T/C", "setting": "dose: 1000.0 mg/kg/injection, schedule: Q01DX001 (sc)", "result": "36 % of control and 45 % of control"}, {"measurement": "T/C", "setting": "dose: 1000.0 mg/kg/injection, schedule: Q## X002 (sc)", "result": "22 % of control"}, {"measurement": "T/C", "setting": "dose: 1500.0 mg/kg/injection, schedule: Q01DX001 (sc)", "result": "24 % of control and 40 % of control"}, {"measurement": "T/C", "setting": "dose: 1500.0 mg/kg/injection, schedule: Q## X002 (sc)", "result": "24 % of control"}]}
